According to the Kinase Knowledgebase extract (Sharma et al. 2016):

molecular target: EGFR (human) (UniProt P00533); conditions: nci-h1975
Sequence (P00533 whole entry, looked up): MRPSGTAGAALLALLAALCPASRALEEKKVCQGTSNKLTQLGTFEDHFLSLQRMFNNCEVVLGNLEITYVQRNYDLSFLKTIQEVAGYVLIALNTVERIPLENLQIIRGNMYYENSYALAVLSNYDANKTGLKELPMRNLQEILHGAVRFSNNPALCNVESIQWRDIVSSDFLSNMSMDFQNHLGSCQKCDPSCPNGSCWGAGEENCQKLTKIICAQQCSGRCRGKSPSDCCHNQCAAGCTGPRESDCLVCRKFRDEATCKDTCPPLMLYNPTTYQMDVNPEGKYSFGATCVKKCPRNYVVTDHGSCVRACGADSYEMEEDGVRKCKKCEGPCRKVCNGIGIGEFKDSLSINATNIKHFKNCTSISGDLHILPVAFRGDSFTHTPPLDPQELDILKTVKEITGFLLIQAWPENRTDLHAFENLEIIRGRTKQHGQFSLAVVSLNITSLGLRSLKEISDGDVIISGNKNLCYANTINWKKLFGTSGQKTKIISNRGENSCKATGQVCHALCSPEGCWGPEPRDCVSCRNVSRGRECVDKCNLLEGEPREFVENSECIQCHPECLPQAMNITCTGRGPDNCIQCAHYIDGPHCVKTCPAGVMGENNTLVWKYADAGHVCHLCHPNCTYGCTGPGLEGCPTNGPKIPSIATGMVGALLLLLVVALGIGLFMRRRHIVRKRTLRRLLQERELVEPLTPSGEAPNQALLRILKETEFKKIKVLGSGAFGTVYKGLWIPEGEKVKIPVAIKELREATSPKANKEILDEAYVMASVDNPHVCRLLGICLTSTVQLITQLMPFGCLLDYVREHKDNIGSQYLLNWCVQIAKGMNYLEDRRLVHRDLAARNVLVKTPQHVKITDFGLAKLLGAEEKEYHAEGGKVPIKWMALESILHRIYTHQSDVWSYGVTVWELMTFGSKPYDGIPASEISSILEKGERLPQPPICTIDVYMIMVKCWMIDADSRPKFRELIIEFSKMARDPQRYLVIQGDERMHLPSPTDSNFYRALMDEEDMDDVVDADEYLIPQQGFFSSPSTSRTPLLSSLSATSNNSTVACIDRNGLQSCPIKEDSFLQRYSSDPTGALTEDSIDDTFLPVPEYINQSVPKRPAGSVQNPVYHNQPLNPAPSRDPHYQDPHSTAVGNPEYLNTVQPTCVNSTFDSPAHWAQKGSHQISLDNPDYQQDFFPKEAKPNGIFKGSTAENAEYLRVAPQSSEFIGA

Row | IC50 | SMILES
1 | 8 µM | CC(Nc1ncnc2[nH]c(-c3ccc(O)cc3)cc12)c1ccccc1 (stereo not given)

same assay, conditions: nci-h1975, concentration not given here

Row | inhibition | SMILES
2 | 34% | Cc1cc(Nc2cc(N3CCN(C)CC3)nc(Sc3ccc(NC(=O)C4CC4)cc3)n2)[nH]n1
3 | < 25% | c1ccc(-c2n[nH]cc2-c2ccnc3ccccc23)nc1
4 | < 25% | COc1cc2ncnc(Nc3ccc(OCc4ccccc4)cc3)c2cc1OC
5 | < 25% | CC(C)(C)c1nc2c3ccc(F)cc3c3c(=O)[nH]ccc3c2[nH]1
6 | 60% | CC(C)(C)n1nc(-c2cccc3ccccc23)c2c(N)ncnc21
7 | < 25% | O=C1NC(=O)C(c2ccccc2[N+](=O)[O-])=C1Nc1ccc(O)c(Cl)c1
8 | 76% | O=C(Nc1cc(C(F)(F)F)cc(C(F)(F)F)c1)c1cc(Cl)ccc1O
9 | 63% | CC(C)(C)c1cnc(CSc2cnc(NC(=O)C3CCNCC3)s2)o1
10 | < 25% | O=C1Nc2ccc(I)cc2/C1=C\c1cc(Br)c(O)c(Br)c1
11 | 55% | Cc1cc(Nc2ncc3cc(-c4c(Cl)cccc4Cl)c(=O)n(C)c3n2)ccc1F
12 | < 25% | CC(C)[C@H](CO)Nc1nc(Nc2ccc(C(=O)O)c(Cl)c2)c2ncn(C(C)C)c2n1
13 | < 25% | Cc1ccc(NC(=O)c2ccc(CN3CCN(C)CC3)cc2)cc1Nc1nccc(-c2cccnc2)n1
14 | 35% | NC(=O)Nc1sc(-c2ccc(F)cc2)cc1C(N)=O
15 | < 25% | COc1cccc(-c2cc(=O)c3ccccc3o2)c1N
16 | < 25% | O=c1ncn2nc(Sc3ccc(F)cc3F)ccc2c1-c1c(Cl)cccc1Cl
17 | 37% | Cn1cc(C2=C(c3ccc(Cl)cc3Cl)C(=O)NC2=O)c2ccccc21
18 | < 25% | Cc1ccc(NC(=O)c2cccc(N(C)C)c2)cc1NC(=O)c1ccc(O)cc1
19 | < 25% | Cc1cc(C)c(/C=C2\C(=O)Nc3ccc(Cl)cc32)[nH]1
20 | < 25% | OCCC#Cc1nc(-c2ccc(F)cc2)c(-c2ccncc2)n1CCCc1ccccc1
